Key:
Assay in all cases: relative viability (nuclei count vs DMSO), 5 days (fraction); higher = more cells survive
Linifanib + Dasatinib = compound: Cc1ccc(F)c(NC(=O)Nc2ccc(-c3cccc4[nH]nc(N)c34)cc2)c1 [Linifanib] + Cc1nc(Nc2ncc(C(=O)Nc3c(C)cccc3Cl)s2)cc(N2CCN(CCO)CC2)n1 [Dasatinib] (partner 0.075 µM)
In short: (§1)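 The day after seeding in 1536-well plates, lung cancer cell lines were treated by pin tool with a single drug, or with a fixed anchor-drug dose together with five library-drug doses (not always all listed) in √10 steps. After 5 days, a combined fix-and-stain solution (final 0.05% Triton X-100, 1% formaldehyde, 1 ug/ml Hoechst) was added. Nuclei counted on 4× images gave relative viability as treated counts over vehicle counts, reported as the median of duplicate plates.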

Linifanib + Palbociclib = compound: Cc1ccc(F)c(NC(=O)Nc2ccc(-c3cccc4[nH]nc(N)c34)cc2)c1 [Linifanib] + CC(=O)c1c(C)c2cnc(Nc3ccc(N4CCNCC4)cn3)nc2n(C2CCCC2)c1=O [Palbociclib] (partner 0.5 µM)
In short: as §1

Linifanib + Lapatinib = compound: Cc1ccc(F)c(NC(=O)Nc2ccc(-c3cccc4[nH]nc(N)c34)cc2)c1 [Linifanib] + CS(=O)(=O)CCNCc1ccc(-c2ccc3ncnc(Nc4ccc(OCc5cccc(F)c5)c(Cl)c4)c3c2)o1 [Lapatinib] (partner 2 µM)
In short: as §1

Linifanib + Alpelisib = compound: Cc1ccc(F)c(NC(=O)Nc2ccc(-c3cccc4[nH]nc(N)c34)cc2)c1 [Linifanib] + Cc1nc(NC(=O)N2CCC[C@H]2C(N)=O)sc1-c1ccnc(C(C)(C)C(F)(F)F)c1 [Alpelisib] (partner 2 µM)
In short: as §1

Linifanib + Pictilisib = compound: Cc1ccc(F)c(NC(=O)Nc2ccc(-c3cccc4[nH]nc(N)c34)cc2)c1 [Linifanib] + CS(=O)(=O)N1CCN(Cc2cc3nc(-c4cccc5[nH]ncc45)nc(N4CCOCC4)c3s2)CC1 [Pictilisib] (partner 1 µM)
In short: as §1

Linifanib + Trametinib = compound: Cc1ccc(F)c(NC(=O)Nc2ccc(-c3cccc4[nH]nc(N)c34)cc2)c1 [Linifanib] + CC(=O)Nc1cccc(-n2c(=O)n(C3CC3)c(=O)c3c(Nc4ccc(I)cc4F)n(C)c(=O)c(C)c32)c1 [Trametinib] (partner 0.02 µM)
In short: as §1

Cell Line | relative viability (Linifanib + Dasatinib; first compound 0.03162 µM) | relative viability (Linifanib + Dasatinib; first compound 0.1 µM) | relative viability (Linifanib + Dasatinib; first compound 0.3162 µM) | relative viability (Linifanib + Palbociclib; first compound 0.03162 µM) | relative viability (Linifanib + Palbociclib; first compound 0.1 µM) | relative viability (Linifanib + Palbociclib; first compound 0.3162 µM) | relative viability (Linifanib + Lapatinib; first compound 0.03162 µM) | relative viability (Linifanib + Lapatinib; first compound 0.1 µM) | relative viability (Linifanib + Lapatinib; first compound 0.3162 µM) | relative viability (Linifanib + Alpelisib; first compound 0.03162 µM) | relative viability (Linifanib + Alpelisib; first compound 0.1 µM) | relative viability (Linifanib + Alpelisib; first compound 0.3162 µM) | relative viability (Linifanib + Pictilisib; first compound 0.03162 µM) | relative viability (Linifanib + Pictilisib; first compound 0.1 µM) | relative viability (Linifanib + Pictilisib; first compound 0.3162 µM) | relative viability (Linifanib + Trametinib; first compound 0.03162 µM) | relative viability (Linifanib + Trametinib; first compound 0.1 µM) | relative viability (Linifanib + Trametinib; first compound 0.3162 µM)
NCI-H2126 | 0.622 | 0.718 | 0.622 | 0.376 | 0.388 | 0.379 | 0.792 | 0.788 | 0.779 | 0.791 | 0.793 | 0.765 | 0.48 | 0.507 | 0.457 | 0.584 | 0.571 | 0.547
HCC-827 | 0.272 | 0.32 | 0.268 | 0.491 | 0.544 | 0.46 | 0.19 | 0.173 | 0.191 | 0.986 | 1.06 | 0.922 | 0.898 | 0.96 | 0.933 | 0.559 | 0.522 | 0.514
NCI-H661 | 1.07 | 0.983 | 0.871 | 0.437 | 0.398 | 0.417 | 0.483 | 0.449 | 0.42 | 0.647 | 0.787 | 0.515 | 0.424 | 0.487 | 0.38 | 0.577 | 0.591 | 0.55
NCI-H1755 | 0.458 | 0.406 | 0.388 | 0.47 | 0.461 | 0.429 | 1.1 | 1.09 | 1.01 | 0.966 | 0.963 | 0.833 | 0.493 | 0.503 | 0.397 | 0.781 | 0.801 | 0.831
HCC-15 | 0.635 | 0.709 | 0.725 | 0.723 | 0.741 | 0.842 | 0.841 | 0.839 | 0.853 | 0.881 | 0.941 | 0.887 | 0.833 | 0.804 | 0.71 | 0.346 | 0.409 | 0.365
NCI-H2009 | 0.323 | 0.358 | 0.304 | 0.247 | 0.263 | 0.25 | 1.23 | 0.928 | 0.941 | 1.16 | 1.19 | 1.08 | 0.873 | 0.973 | 0.835 | 0.266 | 0.343 | 0.274
SK-MES-1 | 0.336 | 0.455 | 0.388 | 0.323 | 0.331 | 0.336 | 0.456 | 0.534 | 0.384 | 0.883 | 0.852 | 0.885 | 0.369 | 0.338 | 0.398 | 0.528 | 0.568 | 0.507
NCI-H2023 | 0.543 | 0.681 | 0.565 | 0.357 | 0.415 | 0.345 | 0.801 | 1.06 | 0.733 | 0.585 | 0.598 | 0.564 | 0.221 | 0.297 | 0.263 | 0.538 | 0.675 | 0.554
NCI-H2405 | 0.212 | 0.199 | 0.219 | 0.56 | 0.532 | 0.513 | 1.19 | 1.05 | 1.12 | 0.801 | 0.847 | 0.701 | 0.499 | 0.606 | 0.477 | 0.599 | 0.675 | 0.596
HCC-78 | 0.441 | 0.539 | 0.37 | 0.513 | 0.433 | 0.447 | 1.23 | 0.976 | 0.674 | 0.339 | 0.357 | 0.363 | 0.24 | 0.21 | 0.237 | 0.657 | 0.692 | 0.805
LCLC-97TM1 | 0.887 | 1.04 | 0.678 | 0.212 | 0.243 | 0.196 | 1.51 | 0.984 | 0.858 | 0.284 | 0.292 | 0.246 | 0.208 | 0.196 | 0.169 | 0.2 | 0.179 | 0.16
NCI-H1944 | 0.204 | 0.215 | 0.216 | 0.334 | 0.353 | 0.35 | 0.943 | 0.881 | 0.645 | 0.846 | 0.848 | 0.695 | 0.368 | 0.378 | 0.341 | 0.427 | 0.416 | 0.381
NCI-H2087 | 1.12 | 1.22 | 0.787 | 0.219 | 0.285 | 0.269 | 1.15 | 1.2 | 0.672 | 1.28 | 1.17 | 1.03 | 0.977 | 0.989 | 0.825 | 0.188 | 0.235 | 0.195
NCI-H1734 | 0.529 | 0.53 | 0.428 | 0.322 | 0.357 | 0.394 | 1.04 | 1.19 | 1.01 | 0.748 | 0.773 | 0.679 | 0.501 | 0.526 | 0.373 | 0.618 | 0.693 | 0.648
EMC-BAC-2 | 0.341 | 0.347 | 0.406 | 0.542 | 0.562 | 0.531 | 0.901 | 0.992 | 0.844 | 0.778 | 0.792 | 0.683 | 0.555 | 0.59 | 0.523 | 1.01 | 0.993 | 0.875
LU99A | 0.547 | 0.66 | 0.488 | 0.457 | 0.464 | 0.408 | 1.07 | 1.06 | 1.05 | 0.574 | 0.618 | 0.539 | 0.317 | 0.349 | 0.325 | 0.558 | 0.582 | 0.587
NCI-H1793 | 0.394 | 0.439 | 0.406 | 0.31 | 0.349 | 0.292 | 0.7 | 0.765 | 0.765 | 0.664 | 0.763 | 0.681 | 0.336 | 0.285 | 0.332 | 0.372 | 0.56 | 0.434
